Assay results published in patent US9765087B2, “Benzimidazole derivatives” (ENANTA PHARMACEUTICALS, INC., priority 2009, dated 2017).

System: HCV 1a genotype replicon
Assay: HCV replicon assay (qRT-PCR or luciferase), genotype 1a
Format: cell-based
Details: Hepatitis C virus, Table 12, numeric values, read-out: 1a EC50
Protocol: HCV replicon cell lines (kindly provided by R. Bartenschlager) isolated from colonies as described by Lohman et. al. (Lohman et al. (1999) Science 285: 110-113, expressly incorporated by reference in its entirety) and used for all experiments. The HCV replicon has the nucleic acid sequence set forth in EMBL Accession No.: AJ242651, the coding sequence of which is from nucleotides 1801 to 8406.
These cell lines were maintained at 37° C., 5% CO2, 100% relative humidity in DMEM (Cat#11965-084, Invitrogen), with 10% fetal calf serum (“FCS”, Invitrogen), 1% non-essential amino acids (Invitrogen), 1% of Glutamax (Invitrogen), 1% of 100× penicillin/streptomycin (Cat#15140-122, Invitrogen) and Geneticin (Cat#10131-027, Invitrogen) at 0.75 mg/ml or 0.5 mg/ml for 11-7 and Huh-luc/neo-ET cells, respectively.
EC50 values of single agent compounds and combinations were determined by HCV RNA detection using quantitative RT-PCR, according to the manufacturer's instructions, with a TAQMAN® One-Step RT-PCR Master Mix Reagents Kit (Cat#AB 4309169, Applied Biosystems) on an ABI Model 7500 thermocycler. The TaqMan primers used for detecting and quantifying HCV RNA were obtained from Integrated DNA Technologies. HCV RNA was normalized to GAPDH RNA levels in drug-treated cells, which is detected and quantified using the Human GAPDH Endogenous Control Mix (Applied Biosystems, AB 4310884E). Total cellular RNA is purified from 96-well plates using the RNAqueous 96 kit (Ambion, Cat# AM1812). Chemical agent cytotoxicity is evaluated using an MTS assay according to the manufacturer's directions (Promega).
Since clinical drug resistance often develops in viral infections following single agent therapies, there is a need to assess the additive, antagonistic, or synergistic properties of combination therapies. We used the HCV replicon system to assess the potential use of the compound of the present invention or in combination therapies with Interferon alpha, cyclosporine analogs and inhibitors targeting other HCV proteins. The acute effects of a single or combinations of drugs are studied in the “Huh-luc/neo-ET” replicon with each chemical agent titrated in an X or Y direction in a 6 point two-fold dilution curve centered around the EC50 of each drug. Briefly, replicon cells are seeded at 7,000 cells per well in 90 ul DMEM (without phenol red, Invitrogen Cat.#31053-036) per well with 10% FCS, 1% non-essential amino acids, 1% of Glutamax and 1% of 100× penicillin/streptomycin and incubated overnight at 37° C., 5% CO2, 100% relative humidity. 16-20 h after seeding cells, test compounds previously solubilized and titrated in dimethyl sulfoxide (“DMSO”) from each X plate and Y plate are diluted 1:100 in DMEM (without phenol red, Invitrogen Cat.#31053-036) with 10% FCS, 1% non-essential amino acids, 1% of Glutamax and 1% of 100× penicillin/streptomycin and added directly to the 96-well plate containing cells and growth medium at a 1:10 dilution for a final dilution of compound and DMSO of 1:1000 ([…] final concentration). Drug treated cells are incubated at 37° C., 5% CO2, 100% relative humidity for 72 hours before performing a luciferase assay using 100 ul per well BriteLite Plus (Perkin Elmer) according to the manufacturer's instructions. Data analysis utilizes the method published by Prichard and Shipman (Antiviral Research, 1990. 14:181-205). Using this method, the combination data are analyzed for antagonistic, additive, or synergistic combination effects across the entire combination surface created by the diluted compounds in combination.
The compounds of the present invention can be effective against the HCV 1b genotype. It should also be understood that the compounds of the present invention can inhibit multiple genotypes of HCV. In one embodiment compound of the present invention are active against the 1a, 1b, 2a, 2b, 3a, 4a, and 5a genotypes. […] EC50 ranges against HCV 1b and 1a are as follows: A>10 nM; B1-10 nM; C<1 nM.

COC(=O)N[C@H](C(=O)N1CC2(CC2)C[C@H]1c1ncc(-c2ccc(C#Cc3ccc4nc([C@@H]5CC6(CC6)CN5C(=O)[C@H](NC(=O)OC)c5cccc(OC)c5)[nH]c4c3)cc2)[nH]1)C(C)C [Example 654] and COC(=O)N[C@H](C(=O)N1CC2(CC2)C[C@H]1c1nc2ccc(C#Cc3ccc(-c4cnc([C@@H]5CCCN5C(=O)[C@H](NC(=O)OC)c5cccc(OC)c5)[nH]4)cc3)cc2[nH]1)C(C)C [Example 597] are within 1.5-fold of each other in EC50: 0.185 nM for the first, 0.227 nM for the second.

COC(=O)N[C@H](C(=O)N1CC2(CC2)C[C@H]1c1nc2ccc(C#Cc3ccc(-c4cnc([C@@H]5CCCN5C(=O)[C@H](NC(=O)OC)c5ccoc5)[nH]4)cc3)cc2[nH]1)C(C)C [Example 681] and COC(=O)N[C@H](C(=O)N1CC2(CC2)C[C@H]1c1nc2ccc(C#Cc3ccc(-c4cnc([C@@H]5CCCN5C(=O)[C@H](NC(=O)OC)c5cccs5)[nH]4)cc3)cc2[nH]1)C(C)C [Example 663] are within 1.5-fold of each other in EC50: 0.202 nM for the first, 0.295 nM for the second.

COC(=O)N[C@H](C(=O)N1CC2(CC2)C[C@H]1c1nc(-c2ccc(C#Cc3ccc4[nH]c([C@@H]5CC6(CC6)CN5C(=O)[C@@H](NC(=O)OC)C(C)C)nc4c3)cc2)c(-c2ccccc2)[nH]1)C(C)C [Example 661] showed an EC50 of 0.369 nM.

Same assay, conditions: Hepatitis C virus, Table 12, range class, read-out: 1a EC50 Range

COC(=O)N[C@H](C(=O)N1CCC[C@H]1c1ncc(-c2ccc(C#Cc3ccc4nc([C@@H]5C[C@@H](C6CC6)CN5C(=O)[C@@H](NC(=O)OC)C(C)C)[nH]c4c3)cc2)[nH]1)C(C)C [Example 572] and COC(=O)N[C@H](C(=O)N1C[C@@H](CF)C[C@H]1c1ncc(-c2ccc(C#Cc3ccc4nc([C@@H]5C[C@@]6(CCCO6)CN5C(=O)[C@@H](NC(=O)OC)C(C)C)[nH]c4c3)cc2)[nH]1)C(C)C [Example 566] cannot be ordered by EC50: under 1 nM for the first, under 1 nM for the second.

Going from COC(=O)N[C@H](C(=O)N1CC2(CC2)C[C@H]1c1ncc(-c2ccc(C#Cc3ccc4nc([C@@H]5CC6(CC6)CN5C(=O)[C@@H](N)C(C)C)[nH]c4c3)cc2)[nH]1)C(C)C [Example 556] to CC[C@@H](C)[C@H](NC(=O)OC)C(=O)N1CC2(CC2)C[C@H]1c1ncc(-c2ccc(C#Cc3ccc4nc([C@@H]5CC6(CC6)CN5C(=O)[C@@H](NC(=O)OC)C(C)C)[nH]c4c3)cc2)[nH]1 [Example 606], the EC50 falls from over 10 nM to under 1 nM. The second is the more potent here.

Compared with COC(=O)N[C@H](C(=O)N1CC2(CC2)C[C@H]1c1ncc(-c2ccc(C#Cc3ccc4nc([C@@H]5CC6(CC6)CN5C(=O)[C@H](NC(=O)OC)c5ccc(OC)cc5)[nH]c4c3)cc2)[nH]1)C(C)C [Example 585], COC(=O)N[C@H](C(=O)N1CC2(CC2)C[C@H]1c1ncc(-c2ccc(C#Cc3ccc4nc([C@@H]5CC6(CC6)CN5C(=O)[C@H](NC(=O)OC)c5cccc(Cl)c5)[nH]c4c3)cc2)[nH]1)C(C)C [Example 584] is lower in EC50: 1 to 10 nM for the first, under 1 nM for the second.

COC(=O)N[C@H](C(=O)N1CC2(CC2)C[C@H]1c1nc(-c2ccc(C#Cc3ccc4[nH]c([C@@H]5CC6(CC6)CN5C(=O)[C@@H](NC(=O)OC)C(C)C)nc4c3)cc2)c(Cl)[nH]1)C(C)C [Example 588] and COC(=O)N[C@H](C(=O)N1CC2(CC2)C[C@H]1c1nc(-c2ccc(C#Cc3ccc4[nH]c([C@@H]5CC6(CC6)CN5C(=O)[C@@H](NC(=O)OC)C(C)C)nc4c3)cc2)c(C2CC2)[nH]1)C(C)C [Example 591] cannot be ordered by EC50: under 1 nM for the first, under 1 nM for the second.

Compared with CC(C)[C@H](NC(=O)OC1CCC1)C(=O)N1CC2(CC2)C[C@H]1c1ncc(-c2ccc(C#Cc3ccc4nc([C@@H]5CC6(CC6)CN5C(=O)[C@@H](NC(=O)OC5CCC5)C(C)C)[nH]c4c3)cc2)[nH]1 [Example 576], COC(=O)N[C@H](C(=O)N1CC2(CC2)C[C@H]1c1ncc(-c2ccc(C#Cc3ccc4nc([C@@H]5CC6(CC6)CN5C(=O)[C@H](NC(=O)OC)C5CCCC5)[nH]c4c3)cc2)[nH]1)C(C)C [Example 599] is lower in EC50: over 10 nM for the first, 1 to 10 nM for the second.

COC(=O)N[C@H](C(=O)N1CC2(CC2)C[C@H]1c1nc2ccc(C#Cc3ccc(-c4cnc([C@@H]5C[C@H]6C[C@H]6N5C(=O)[C@H](NC(=O)OC)c5ccccc5)[nH]4)cc3)cc2[nH]1)C(C)C [Example 659] and COC(=O)N[C@H](C(=O)N1CC2(CC2)C[C@H]1c1nc2ccc(C#Cc3ccc(-c4cnc([C@@H]5C[C@H]6C[C@H]6N5C(=O)[C@H](NC(=O)OC)c5cccc(F)c5)[nH]4)cc3)cc2[nH]1)C(C)C [Example 684] cannot be ordered by EC50: under 1 nM for the first, under 1 nM for the second.

COC(=O)N[C@H](C(=O)N1CC2(CC2)C[C@H]1c1ncc(-c2ccc(C#Cc3ccc4nc([C@@H]5CC6(CC6)CN5C(=O)[C@H](NC(=O)OC)c5cccnc5)[nH]c4c3)cc2)[nH]1)C(C)C [Example 610] and COC(=O)N[C@H](C(=O)N1CC2(CC2)C[C@H]1c1ncc(-c2ccc(C#Cc3ccc4nc([C@@H]5CC6(CC6)CN5C(=O)[C@H](NC(=O)OC)c5ccsc5)[nH]c4c3)cc2)[nH]1)C(C)C [Example 581] cannot be ordered by EC50: under 1 nM for the first, under 1 nM for the second.

First: COC(=O)N[C@H](C(=O)N1CC2(CC2)C[C@H]1c1ncc(-c2ccc(C#Cc3ccc4nc([C@@H]5CC6(CC6)CN5C(=O)[C@H](NC(=O)OC)C5CCCCC5)[nH]c4c3)cc2)[nH]1)C(C)C [Example 667]
Second: COC(=O)N[C@H](C(=O)N1CC2(CC2)C[C@H]1c1ncc(-c2ccc(C#Cc3ccc4nc([C@@H]5CC6(CC6)CN5C(=O)[C@@H](NC(=O)OC)[C@@H](C)OC)[nH]c4c3)cc2)[nH]1)C(C)C [Example 589]
The EC50 of the first is higher: 1 to 10 nM for the first, under 1 nM for the second.

COC(=O)N[C@H](C(=O)N1CC2(CC2)C[C@H]1c1nc2ccc(C#Cc3ccc(-c4cnc([C@@H]5CCCN5C(=O)[C@H](NC(=O)OC)c5cccc(F)c5)[nH]4)cc3)cc2[nH]1)C(C)C [Example 600] and COC(=O)N[C@H](C(=O)N1CC2(CC2)C[C@H]1c1nc2ccc(C#Cc3ccc(-c4cnc([C@@H]5CCCN5C(=O)[C@H](NC(=O)OC)c5ccc(F)cc5)[nH]4)cc3)cc2[nH]1)C(C)C [Example 664] cannot be ordered by EC50: under 1 nM for the first, under 1 nM for the second.

COC(=O)N[C@H](C(=O)N1CCC[C@H]1c1nc(-c2ccc(C#Cc3ccc4[nH]c([C@@H]5C[C@]6(CCCO6)CN5C(=O)[C@@H](NC(=O)OC)C(C)C)nc4c3)cc2)c[nH]1)C(C)C [Example 557] and COC(=O)N[C@@H](CCNC(N)=O)C(=O)N1CCC[C@H]1c1nc(-c2ccc(C#Cc3ccc4[nH]c([C@@H]5CC6(CC6)CN5C(=O)[C@@H](NC(=O)OC)C(C)C)nc4c3)cc2)c[nH]1 [Example 553] fall in the same range of EC50: 1 to 10 nM for the first, 1 to 10 nM for the second.

COC(=O)N[C@H](C(=O)N1CC2(CC2)C[C@H]1c1nc2ccc(C#Cc3ccc(-c4cnc([C@@H]5C[C@@H](C)CN5C(=O)[C@H](NC(=O)OC)c5ccccc5)[nH]4)cc3)cc2[nH]1)C(C)C [Example 671] and COC(=O)N[C@H](C(=O)N1CC2(CC2)C[C@H]1c1ncc(-c2ccc(C#Cc3ccc4nc([C@@H]5CC6(CC6)CN5C(=O)[C@@H](NC(=O)OC)[C@@H](C)c5ccccc5)[nH]c4c3)cc2)[nH]1)C(C)C [Example 668] cannot be ordered by EC50: under 1 nM for the first, under 1 nM for the second.

COC(=O)N[C@H](C(=O)N1CC2(CC2)C[C@H]1c1ncc(-c2ccc(C#Cc3ccc4nc([C@@H]5CC6(CC6)CN5C(=O)[C@H](NC(=O)OC)c5ccccc5F)[nH]c4c3)cc2)[nH]1)C(C)C [Example 652] and COC(=O)N[C@H](C(=O)N1CC2(CC2)C[C@H]1c1nc2ccc(C#Cc3ccc(-c4cnc([C@@H]5CCCN5C(=O)[C@H](NC(=O)OC)c5ccccc5F)[nH]4)cc3)cc2[nH]1)C(C)C [Example 594] cannot be ordered by EC50: under 1 nM for the first, under 1 nM for the second.

Compound CC[C@H](C)[C@H](NC(=O)OC)C(=O)N1CC2(CC2)C[C@H]1c1nc2ccc(C#Cc3ccc(-c4cnc([C@@H]5CC6(CC6)CN5C(=O)[C@@H](NC(=O)OC)C(C)C)[nH]4)cc3)cc2[nH]1 [Example 587] has an EC50 of under 1 nM.
